Laboratory results published in ChEMBL document CHEMBL5532658 (Eur J Med Chem, 2024).
Calls of active or inactive are those of the source. The calls are words filed in the database; no cut-off is given here.

Columns and labels:
CDK7/Cyclin H/MNAT1 = CDK7/Cyclin H/MNAT1 (Homo sapiens, UniProt P50613); assay: Inhibition of human His-tagged CDK7/cyclin H/MNAT1 expressed in baculovirus infected insect cells preincubated for 10 mins followed by substrate and ATP addition and measured after 60 mins by ADP-Glo kinase assay; parameters: species or system Insect cell
Sequence of CDK7/Cyclin H/MNAT1 (P51946 whole entry): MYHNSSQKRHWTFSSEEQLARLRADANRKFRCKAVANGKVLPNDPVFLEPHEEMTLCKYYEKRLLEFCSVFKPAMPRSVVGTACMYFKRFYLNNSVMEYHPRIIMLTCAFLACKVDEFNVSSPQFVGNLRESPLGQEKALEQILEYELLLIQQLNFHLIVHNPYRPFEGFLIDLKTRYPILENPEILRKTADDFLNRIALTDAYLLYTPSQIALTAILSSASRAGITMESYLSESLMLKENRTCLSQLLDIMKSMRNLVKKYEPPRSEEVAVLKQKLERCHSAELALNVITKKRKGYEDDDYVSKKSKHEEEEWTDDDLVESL
Sequence of CDK7/Cyclin H/MNAT1 (P50613 whole entry): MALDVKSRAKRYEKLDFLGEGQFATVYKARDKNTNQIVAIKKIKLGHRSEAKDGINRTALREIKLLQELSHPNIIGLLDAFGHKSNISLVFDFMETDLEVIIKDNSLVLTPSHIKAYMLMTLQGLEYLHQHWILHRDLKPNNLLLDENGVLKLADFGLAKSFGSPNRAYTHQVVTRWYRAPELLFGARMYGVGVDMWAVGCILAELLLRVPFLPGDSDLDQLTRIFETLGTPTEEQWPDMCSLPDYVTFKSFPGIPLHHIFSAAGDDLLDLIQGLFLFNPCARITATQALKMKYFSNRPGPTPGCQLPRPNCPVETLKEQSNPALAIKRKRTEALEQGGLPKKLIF
Sequence of CDK7/Cyclin H/MNAT1 (P51948 whole entry, further chain): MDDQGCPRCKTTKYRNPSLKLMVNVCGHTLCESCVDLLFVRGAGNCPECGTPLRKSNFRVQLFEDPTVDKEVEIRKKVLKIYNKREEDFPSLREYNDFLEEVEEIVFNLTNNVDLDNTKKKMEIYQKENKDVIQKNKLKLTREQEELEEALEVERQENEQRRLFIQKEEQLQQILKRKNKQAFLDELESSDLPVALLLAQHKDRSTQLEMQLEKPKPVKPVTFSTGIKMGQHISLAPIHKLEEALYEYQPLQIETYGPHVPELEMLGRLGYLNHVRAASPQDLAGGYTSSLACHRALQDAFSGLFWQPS

MDA-MB-453 [1] = assay: Antiproliferative activity against human MDA-MB-453 cells incubated for 120 hrs by CCK-8 assay; assay type: functional, cell-based; conditions: MDA-MB-453, 120 h
[2] = Metabolic stability in human liver microsomes assessed as half-life; assay type: ADME, Microsome
[3] = target: T1, Dual specificity mitogen-activated protein kinase kinase 5 (Homo sapiens) (UniProt Q13163); assay: Inhibition of MAP2K5 (unknown origin) assessed as remaining activity at 1 uM by discoverX kinomescan assay relative to control
T1 sequence (whole entry): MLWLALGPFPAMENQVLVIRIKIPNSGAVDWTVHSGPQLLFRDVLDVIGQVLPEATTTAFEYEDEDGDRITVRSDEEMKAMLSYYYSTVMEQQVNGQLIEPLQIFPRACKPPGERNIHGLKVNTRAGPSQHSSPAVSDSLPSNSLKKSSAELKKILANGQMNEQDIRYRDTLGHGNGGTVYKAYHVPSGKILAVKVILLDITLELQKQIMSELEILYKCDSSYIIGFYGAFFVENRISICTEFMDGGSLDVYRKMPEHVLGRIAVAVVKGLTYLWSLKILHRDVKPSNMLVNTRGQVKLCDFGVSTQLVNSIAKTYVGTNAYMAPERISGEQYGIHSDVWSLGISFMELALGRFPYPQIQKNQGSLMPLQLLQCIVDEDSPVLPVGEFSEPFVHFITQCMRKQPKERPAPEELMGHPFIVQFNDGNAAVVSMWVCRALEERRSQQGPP

[4] = target: T2, Cyclin-dependent kinase-like 5 (Homo sapiens) (UniProt O76039); assay: Inhibition of CDKL5 (unknown origin) at 1 uM by discoverX kinomescan assay
T2 sequence (whole entry): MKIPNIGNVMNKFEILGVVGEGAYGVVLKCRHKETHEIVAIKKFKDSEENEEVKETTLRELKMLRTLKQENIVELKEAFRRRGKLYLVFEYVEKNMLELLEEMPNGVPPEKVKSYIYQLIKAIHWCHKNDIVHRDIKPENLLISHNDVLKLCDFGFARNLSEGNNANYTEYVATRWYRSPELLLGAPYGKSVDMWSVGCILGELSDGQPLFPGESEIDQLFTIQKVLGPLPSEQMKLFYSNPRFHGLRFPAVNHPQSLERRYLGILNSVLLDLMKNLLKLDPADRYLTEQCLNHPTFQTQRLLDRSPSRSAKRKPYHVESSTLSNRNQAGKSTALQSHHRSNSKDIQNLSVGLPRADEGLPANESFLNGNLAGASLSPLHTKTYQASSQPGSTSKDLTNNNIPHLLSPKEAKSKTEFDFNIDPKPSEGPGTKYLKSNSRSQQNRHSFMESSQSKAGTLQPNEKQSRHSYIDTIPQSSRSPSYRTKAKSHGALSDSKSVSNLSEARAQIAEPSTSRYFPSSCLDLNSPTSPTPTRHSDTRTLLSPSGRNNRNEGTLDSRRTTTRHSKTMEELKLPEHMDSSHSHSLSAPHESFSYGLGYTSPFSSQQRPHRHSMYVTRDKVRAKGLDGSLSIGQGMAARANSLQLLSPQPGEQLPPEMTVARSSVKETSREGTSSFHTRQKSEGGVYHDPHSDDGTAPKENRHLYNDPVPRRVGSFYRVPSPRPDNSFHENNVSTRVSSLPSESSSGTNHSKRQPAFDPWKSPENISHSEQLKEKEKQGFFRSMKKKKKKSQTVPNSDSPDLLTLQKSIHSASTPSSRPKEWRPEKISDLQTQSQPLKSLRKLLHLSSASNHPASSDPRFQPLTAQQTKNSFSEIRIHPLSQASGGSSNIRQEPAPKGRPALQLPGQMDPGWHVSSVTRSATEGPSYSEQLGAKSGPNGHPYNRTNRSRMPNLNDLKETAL

MDA-MB-453 [5] = assay: Downregulation of Rb protein phosphorylation at Ser608 in human MDA-MB-453 cells incubated for 24 hrs by Western blot analysis; assay type: functional, cell-based; conditions: dose 37-333 nM
MDA-MB-453 [6] = assay: Downregulation of Rb protein phosphorylation at Ser795 in human MDA-MB-453 cells incubated for 24 hrs by Western blot analysis; assay type: functional, cell-based; conditions: dose 37-333 nM
MDA-MB-453 [7] = assay: Downregulation of Rb protein phosphorylation at Ser807 in human MDA-MB-453 cells incubated for 24 hrs by Western blot analysis; assay type: functional, cell-based; conditions: dose 37-333 nM
MDA-MB-453 [8] = assay: Downregulation of Rb protein phosphorylation at Ser811 in human MDA-MB-453 cells incubated for 24 hrs by Western blot analysis; assay type: functional, cell-based; conditions: dose 37-333 nM
MDA-MB-231 [9] = assay: Downregulation of Rb protein phosphorylation at Ser780 in human MDA-MB-231 cells incubated for 24 hrs by Western blot analysis; assay type: functional, cell-based; conditions: dose 37-333 nM
MDA-MB-231 [10] = assay: Downregulation of Rb protein phosphorylation at Ser807 in human MDA-MB-231 cells incubated for 24 hrs by Western blot analysis; assay type: functional, cell-based; conditions: dose 37-333 nM
MDA-MB-231 [11] = assay: Downregulation of Rb protein phosphorylation at Ser811 in human MDA-MB-231 cells incubated for 24 hrs by Western blot analysis; assay type: functional, cell-based; conditions: dose 37-333 nM
MDA-MB-231 [12] = assay: Induction of cell cycle arrest in human MDA-MB-231 cells assessed as G0/G1 phase arrest at 12.3 to 1000 nM incubated for 24 hrs by PI staining based flow cytometry analysis; assay type: functional; conditions: dose 12.3-1000 nM
[13] = Half life in CD1 mouse at 10 mg/kg, po measured upto 24 hrs by LC-MS/MS analysis; assay type: ADME, organism-based; conditions: in vivo
[14] = AUC(0 to t) in CD1 mouse at 10 mg/kg, po measured upto 24 hrs by LC-MS/MS analysis; assay type: ADME, organism-based; conditions: in vivo
MDA-MB-231 [15] = assay: Antitumor activity against human MDA-MB-231 cells xenografted in Balb/c mouse assessed as tumor regression at 5 to 10 mg/kg, po administered once daily and measured at day 15; assay type: functional, organism-based; conditions: dose 5-10 mg/kg

IC50 (CDK7/Cyclin H/MNAT1): 6.5 nM
EC50 (MDA-MB-453 [1]): 150 nM
half-life [2]: 1.2 h
Activity [3]: < 1%
inhibition [4]: inactive
half-life [13]: 2.11 h
AUC(0-t) at 24 h [14]: 513 ng·h/mL
Compound: CP(C)(=O)c1c(C#N)ccc2c(-c3nc(N[C@@H]4CNC[C@@H](F)C4)nc4ccsc34)c[nH]c12
Activity (MDA-MB-453 [5]): Dose-Dependent Effect
Activity (MDA-MB-453 [6]): Dose-Dependent Effect
Activity (MDA-MB-453 [7]): Dose-Dependent Effect
Activity (MDA-MB-453 [8]): Dose-Dependent Effect
Activity (MDA-MB-231 [9]): Dose-Dependent Effect
Activity (MDA-MB-231 [10]): Dose-Dependent Effect
Activity (MDA-MB-231 [11]): Dose-Dependent Effect
Activity (MDA-MB-231 [12]): Active
Activity (MDA-MB-231 [15]): Active
